Measured values reported in article PMC3800186 (Biochemistry, 2013).
“Also recorded” adds a separate entry of the source.

Tests used:
[1] = tested on: mutant gp120 (I423P) binding of F105 antibody; settings: ref ([15], [48]); cited from earlier work
[2] = tested on: gp120 interaction with mAb 17b; settings: read-out: IC50(SPR) mAb 17b, shown for comparison, ref ([19]) and ([30]); cited from earlier work
[3] = tested on: gp120 interaction with sCD4; settings: read-out: IC50(SPR) sCD4, shown for comparison, ref ([19]) and ([30]); cited from earlier work
mutant gp120 (S375W) = settings: ref ([15]); cited from earlier work
[4] = target: S375A gp120 interaction with sCD4 (Human immunodeficiency virus type 1 group M subtype B, UniProt P35961, S370A); assay: SPR KR21/sCD4 competition over immobilized S375A gp120; format: binding, HIV-1; settings: S375A versus WT
S375A gp120 = S375A gp120 (Human immunodeficiency virus type 1 group M subtype B, UniProt P35961, S370A); format: binding, HIV-1; settings: immobilized S375A gp120, SPR

| Compound | inhibition of F105 antibody binding to mutant gp120 (I423P) [1] | IC50 [2] [nM] | IC50 [3] [nM] | binding to gp120 with pocket-filling S375W mutation (mutant gp120 (S375W)) | inhibition of sCD4 binding to mutant gp120 (S375W) (mutant gp120 (S375W)) | reduction in sCD4 inhibitory potency, S375A compared to WT gp120 [4] [fold] | direct binding to S375A gp120 (S375A gp120) |
| --- | --- | --- | --- | --- | --- | --- | --- |
| RINNIPWSEAMM [12p1] | inhibits | 1600 | 1100 | completely abrogated | does not inhibit; also recorded: resistant | – | – |
| CC[C@H](C)[C@H](NC(=O)[C@@H](N)CCCNC(=N)N)C(=O)N[C@@H](CC(N)=O)C(=O)N[C@@H](CC(N)=O)C(=O)N[C@H](C(=O)N1C[C@@H](n2cc([C]34[CH]5[CH]6[CH]7[CH]3[Fe]6754389%10[CH]4[CH]3[CH]8[CH]9[CH]4%10)nn2)C[C@H]1C(=O)N[C@@H](Cc1c[nH]c2ccccc12)C(=O)NCCC(=O)N[C@@H](CCCCNC(=O)CCCC[C@@H]1SC[C@@H]2NC(=O)N[C@@H]21)C(=O)NCC(N)=O)[C@@H](C)CC (stereo partly drawn) [KR21, R^1-I^2-N^3-N^4-I^5-X^6-W^7-βA^8-BtLys^9-G^10] | – | 110 | 85 | – | – | 20 | severely disrupted; also recorded: could not be fitted |
